# Measured values: patent USRE39282E1, “Nucleic acid derivatives” (SmithKline Beecham Corporation, priority 1989, dated 2006)
# Read-outs that look alike come from different tables or passages of the source.
# Test system: HIV-1 isolates
# Assay: plaque-reduction assay with HT4-6C cell monolayers, HIV isolates from untreated and treated individuals
# Assay type: cell-based
# Description: The isolation of HIV-1 was achieved according to methodology reported by Larder et al. PBL samples were prepared by separation on “Ficoll-hypaque” gradients and co-cultivated directly with MT-2 cells (approximately 10^6 of each) after pre-stimulation for 24 to 72 hours with phytohaemag-glutinin (3 μg/ml). In many cases PBLs were cultured after long-term frozen storage. Cultures were maintained in RPMI 1640 supplemented with 10% fetal bovine serum, antibiotics, 2% interleukin-2, and polybrene (2 μg/ml) and expanded by addition of fresh MT-2 cells when a cytopathic effect was observed (between 4 and 14 days). HIV replication was confirmed by the detection of p24 antigen in culture supernatants (p24 antigen detection kit, Abbott, Chicago, Ill.). Virus were prepared from infected cultures and stored in aliquots at −70° C. […] (Larder, B. A., Darby, G., Richman, D., Science, 243, 1731, (1989)).
compound,measurement,setting,value
"Cc1cn([C@H]2C[C@H](N=[N+]=[N-])[C@@H](CO)O2)c(=O)[nH]c1=O [zidovudine, 3′-Azido-3′-deoxythymidine]",IC50,"Human immunodeficiency virus 1, read-out: ZIDOVUDINE SENSITIVITY (ID50 μM), HIV isolate A012D, 26 months of therapy, RT 67 Asn, 70 Arg, 215 Phe, 219 Gln",2 µM
same,IC50,"Human immunodeficiency virus 1, read-out: ZIDOVUDINE SENSITIVITY (ID50 μM), HIV isolate A018C, 14 months of therapy, RT 67 Asn, 70 Arg, 215 Tyr, 219 Gln",2.3 µM
same,IC50,"Human immunodeficiency virus 1, read-out: ZIDOVUDINE SENSITIVITY (ID50 μM), HIV isolate A036C, 11 months of therapy, RT 67 Asp, 70 Lys, 215 Tyr, 219 Lys",0.6 µM
same,IC50,"Human immunodeficiency virus 1, read-out: ZIDOVUDINE SENSITIVITY (ID50 μM), HIV isolate A036D, 20 months of therapy, RT 67 Asn, 70 Arg, 215 Tyr, 219 Lys",5.6 µM
same,IC50,"Human immunodeficiency virus 1, read-out: ZIDOVUDINE SENSITIVITY (ID50 μM), HIV isolate P022C, 16 months of therapy, RT 67 Asn, 70 Arg, 215 Phe, 219 Gln",1.4 µM
same,IC50,"Human immunodeficiency virus 1, read-out: ZIDOVUDINE SENSITIVITY (ID50 μM), HIV isolate P035A, 6 months of therapy, RT 67 Asp, 70 Lys, 215 Tyr, 219 Lys",0.56 µM
same,IC50,"Human immunodeficiency virus 1, read-out: ZIDOVUDINE SENSITIVITY (Mean ID50, μM), HIV isolate A012D, Table 2",2.56 µM
same,IC50,"Human immunodeficiency virus 1, read-out: Zidovudine Sensitivity (ID50 μM), HIV isolate A001A, 0 months of therapy, RT sequence wild type, Table 3",0.03 µM
same,IC50,"Human immunodeficiency virus 1, read-out: Zidovudine Sensitivity (ID50 μM), HIV isolate A001B, 12 months of therapy, RT sequence R70 and N67 R70 Q219, Table 3",0.11 µM
same,IC50,"Human immunodeficiency virus 1, read-out: Zidovudine Sensitivity (ID50 μM), HIV isolate A012D, 26 months of therapy, RT N67 R70 F215 Q219, Table 3",2 µM
same,IC50,"Human immunodeficiency virus 1, read-out: Zidovudine Sensitivity (ID50 μM), HIV isolate A018C, 14 months of therapy, RT N67 R70 Y215 Q219, Table 3",4 µM
same,IC50,"Human immunodeficiency virus 1, read-out: Zidovudine Sensitivity (ID50 μM), HIV isolate A025A, 24 months of therapy, RT R70, Table 3",0.11 µM
same,IC50,"Human immunodeficiency virus 1, read-out: Zidovudine Sensitivity (ID50 μM), HIV isolate A036C, 11 months of therapy, RT Y215, Table 3",0.67 µM
same,IC50,"Human immunodeficiency virus 1, read-out: Zidovudine Sensitivity (ID50 μM), HIV isolate A036D, 20 months of therapy, RT N67 R70 Y215, Table 3",5.6 µM
